Data published in patent EP4725551A1, “FUSION POLYPEPTIDE AJ007 AND USE THEREOF” (Nanjing Anji Biotechnology Co., Ltd., priority 2023, dated 2026).
Where two headings read alike, the source gives them in different places. Residues, ends and D or L forms follow the SMILES beside them.

Columns and labels:
[1] = cited from earlier work
[2] = Ocular tissue distribution at equimolar concentration after eye dropping or intravitreal injection, ELISA (Example 5); assay type: in vivo, C57BL/6J mice; details: for active molecules that can reach the RPE/choroid complex: 5 µL per eye; for active molecules that can reach the RPE/choroid complex / maintenance time at the RPE/choroid complex: equimolar concentration
Method: Experimental process: All the mice in the eye drop groups were administered bilateral eye drops 1 time, with 5 µL of the corresponding drug solution in each eye. At the 6 time points of 0 h, 1 h, 3 h, 7 h, 12 h, and 24 h after the completion of administration, the mice in the corresponding groups were respectively subjected to eyeball removal and blood collection, the collected whole blood was immediately centrifuged at 6,000 rpm for 5 minutes, and then, a supernatant was sucked and stored as a sample to be tested. Additionally, 3 tissue sites, namely the vitreous body, the retina, and the RPE/choroid complex, were isolated from an eyeball under a stereomicroscope, into which a phosphate buffer solution (PBS) was added at 1:10 for dilution, followed by grinding and centrifugation at 12,000 rpm for 5 minutes. A supernatant was sucked to serve as a sample to be tested. Subsequently, the concentration of the fusion polypeptide AJ007 or the multifunctional fusion polypeptide VI (HM-1) in each tissue was detected by an enzyme-linked immunosorbent assay (ELISA) method. The ELISA method is as follows: • (1) coating: diluting HM-1 with a certain concentration of a coating solution (CBS) to 1 µg/mL, adding the diluted solution into a microplate at 100 µL per well, and standing overnight at 4°C; • (2) plate washing: discarding the coating solution, adding 265 µL of a PBST washing solution to each well, washing 3 times for 3 minutes each time, and beating to dryness; • (3) blocking: adding 200 µL of a 1% BSA blocking solution to each well, placing the solution in a water bath at 37°C for 1.5 hours, repeating the plate washing process, and beating to dryness; • (4) addition of a sample to be tested and an antibody: first, adding 100 µL of the sample to be tested to a microplate, then adding 100 µL of an HM-1 monoclonal antibody dilution solution at a certain concentration, setting 2-3 replicate wells, shaking uniformly on a shaker at 37°C for 2 minutes, then transferring the mixture to a water bath pot for placement at 37°C for 2 hours, taking out the mixture after a thorough reaction, and repeating the plate washing process; • (5) reaction with an enzyme-labeled secondary antibody: adding a certain concentration of HRP enzyme-labeled goat anti-mouse IgG at 100 µL per well for incubation at 37°C for 1.5 hours, repeating the plate washing process, and beating to dryness; • (6) addition of a substrate: adding 100 µL of a TMB substrate chromogenic solution to each well for color development at room temperature in the dark for a certain period of time; • (7) termination: adding 50 µL of a termination solution to each well to terminate the reaction; and • (8) detection: reading an OD value of each well at 450 nm using a microplate reader.
This example provides an ocular tissue distribution comparison experiment of the polypeptide eye drops (AJ007 eye drops) in Example 2 with an equimolar concentration of the multifunctional fusion polypeptide VI (HM-1), a multifunctional fusion polypeptide VI preparation (HM-1 preparation, with a polypeptide being HM-1 and a formulation of other auxiliary materials being the same as the AJ007 eye drops), a fusion polypeptide AJ007 preparation (TAT-HM-1, with a polypeptide being AJ007 and pure water as a vehicle) after eye dropping, and the multifunctional fusion polypeptide VI (HM-1) after intravitreal injection, which is specifically described below.
Animal grouping: […] C57BL/6J mice were randomly divided into a total of 7 time point groups, including 0 h, 10 min, 1 h, 3 h, 7 h, 12 h, and 24 h, with 2 mice in each group.
Experimental process: All the mice in the eye drop administration groups were administered bilateral eye drops 1 time, with 5 µL of a corresponding drug solution dropped into each eye, while 5 µL of a corresponding drug solution was injected into both eyes in the HM-1 intravitreal injection group. […]

ranibizumab
concentration reaching the retina after eye dropping, increase ([1]; after linking to a cell-penetrating peptide, patents CN114073774A, CN114668717A): approximately 100 times

C[C@H](NC(=O)CNC(=O)[C@@H](N)CCCNC(=N)N)C(=O)N[C@@H](CC(=O)O)C(=O)N[C@@H](CCCNC(=N)N)C(=O)N[C@@H](C)C(=O)NCC(=O)NCC(=O)NCC(=O)NCC(=O)N[C@@H](CCCNC(=N)N)C(=O)NCC(=O)N[C@@H](CC(=O)O)C(=O)O [HM-1, Arg-Gly-Ala-Asp-Arg-Ala-Gly-Gly-Gly-Gly-Arg-Gly-Asp] (H-RGADRAGGGGRGD-OH)
active molecules that can reach the RPE/choroid complex ([2]; intravitreal injection): approximately 5729.7 ng/mL | maintenance time at the RPE/choroid complex ([2]; intravitreal injection): the maintenance time is shorter | active molecules that can reach the RPE/choroid complex ([2]; single eye dropping): less than 10 ng/mL | maintenance time at the RPE/choroid complex ([2]; single eye dropping): very short

C[C@H](NC(=O)CNC(=O)[C@H](CCCNC(=N)N)NC(=O)[C@H](CCCNC(=N)N)NC(=O)[C@H](CCCNC(=N)N)NC(=O)[C@H](CCCNC(=N)N)NC(=O)[C@H](CCC(N)=O)NC(=O)[C@H](CCCNC(=N)N)NC(=O)[C@H](CCCNC(=N)N)NC(=O)[C@H](CCCCN)NC(=O)[C@H](CCCCN)NC(=O)[C@H](CCCNC(=N)N)NC(=O)CNC(=O)[C@@H](N)Cc1ccc(O)cc1)C(=O)N[C@@H](CC(=O)O)C(=O)N[C@@H](CCCNC(=N)N)C(=O)N[C@@H](C)C(=O)NCC(=O)NCC(=O)NCC(=O)NCC(=O)N[C@@H](CCCNC(=N)N)C(=O)NCC(=O)N[C@@H](CC(=O)O)C(=O)O [AJ007] (H-YGRKKRRQRRRRGADRAGGGGRGD-OH)
ability to penetrate through the posterior segment of ocular, increase compared with HM-1 ([2]; eye dropping): approximately 600 times | active molecules that can reach the RPE/choroid complex ([2]; single eye dropping): 6291.38 ng/mL | active molecules that can reach the RPE/choroid complex ([2]; single eye dropping, listed as TAT-HM-1): 843.28 ng/mL | maintenance time at the RPE/choroid complex ([2]; single eye dropping): the maintenance time is also shorter

bevacizumab
ability to penetrate through and enter the posterior segment of the eye after eye dropping, increase ([1]; after linking to a cell-penetrating peptide CPP): approximately 10 times

axitinib
concentration reaching the retina after eye dropping, increase ([1]; in vivo): 5-10 times
